Test results from patent US20260248972A1, “DUAL RECEPTOR TARGETING RADIOLIGANDS AND USES THEREOF RELATED APPLICATIONS” (priority 2022, published 2026).
Read-outs that look alike come from different tables or passages of the source.

Experiments:
[1] = biological target: T1, CCK2R (Rattus norvegicus, UniProt P30553); assay: Competitive cell-binding assay on AR42J cells with 125I-C3 as competitive ligand; details: for IC50: AR42J cells, 125I-C3 competitive ligand, 37° C. 1 h, read-out: CCK2R/IC50
T1 construct: host or cells: AR42J cells
T1 sequence (P30553 1-452): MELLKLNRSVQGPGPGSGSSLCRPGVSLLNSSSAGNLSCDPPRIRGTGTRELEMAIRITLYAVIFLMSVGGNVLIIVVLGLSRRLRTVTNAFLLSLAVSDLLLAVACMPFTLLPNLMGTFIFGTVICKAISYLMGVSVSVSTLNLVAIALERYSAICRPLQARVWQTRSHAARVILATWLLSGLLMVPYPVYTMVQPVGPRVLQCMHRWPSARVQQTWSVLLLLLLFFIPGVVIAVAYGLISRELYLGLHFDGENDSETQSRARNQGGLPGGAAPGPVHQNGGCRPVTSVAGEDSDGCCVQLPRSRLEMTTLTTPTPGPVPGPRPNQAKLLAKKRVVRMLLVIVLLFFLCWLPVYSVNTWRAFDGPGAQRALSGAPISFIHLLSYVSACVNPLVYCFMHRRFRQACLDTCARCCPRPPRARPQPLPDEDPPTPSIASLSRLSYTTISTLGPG
Method: (§1) AR42J cells (ATCC) were maintained in RPMI-1640 medium (Gibco) supplemented with 15% fetal bovine serum (Gibco) and 1% penicillin-streptomycin (BI) at 37° C. in a humidified incubator with 5% CO2. The culture medium was replaced with fresh medium every 2-3 days. Experiments were performed with cells at 70-80% confluence.
(§2) Binding Affinity Tested by Using ^125I-Labeled Competitive Ligands.
(§3) The binding affinities of test compounds were determined by a competitive cell-binding assay using ^125I-C1 and ^125I-C3 as the competitive ligand. The suspended AR42J cells at a density of 1~3×10^6 cells/mL in binding buffer (RPMI-1640 medium supplemented with 0.25% bovine serum albumin) were transferred to a MultiScreen-DV Filter Plate (Millipore) with 100 μL per well except the blank group where the binding buffer was used instead. The cells were then incubated with ^125I-C1 and ^125I-C3 (0.02 μCi/well) in the presence of increasing concentrations (0-10000 nM) of test compounds at 37° C. for 1 h (n=3). The final volume in each well was maintained at 200 μL and insufficient volume was adjusted by the binding buffer. After the 1 h incubation, unbound ^125I-competitive ligands were removed by filtration using a Multiscreen vacuum manifold (Millipore) followed by rinses with the binding buffer (3 times). The filters were collected, and their radioactivity were individually measured by γ counter (2480 WIZARD2, PerkinElmer). The best-fit IC50value (inhibitory concentration when 50% of the bound ^125I-C1 and ^125l I-C3 on cells were displaced) of test compounds were calculated by fitting the data with nonlinear regression using GraphPad Prism 8.0.1.

[2] = biological target: T2, SSTR2 (Rattus norvegicus, UniProt P30680); assay: Competitive cell-binding assay on AR42J cells with 125I-C1 as competitive ligand; details: for IC50: AR42J cells, 125I-C1 competitive ligand, 37° C. 1 h, read-out: SSTR2/IC50
T2 construct: host or cells: AR42J cells
T2 sequence (P30680 whole entry): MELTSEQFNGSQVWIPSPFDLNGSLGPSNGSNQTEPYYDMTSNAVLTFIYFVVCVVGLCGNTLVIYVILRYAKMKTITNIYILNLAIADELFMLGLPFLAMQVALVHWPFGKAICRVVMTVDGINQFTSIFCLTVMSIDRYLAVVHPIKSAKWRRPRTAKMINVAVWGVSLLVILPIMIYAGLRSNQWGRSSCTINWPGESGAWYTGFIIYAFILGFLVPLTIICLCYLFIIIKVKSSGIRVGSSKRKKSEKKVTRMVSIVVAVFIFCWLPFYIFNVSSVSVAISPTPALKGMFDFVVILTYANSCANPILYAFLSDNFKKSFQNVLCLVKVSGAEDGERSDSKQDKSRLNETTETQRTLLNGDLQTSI
Method: as §1, §2, §3

[3] = in vivo; details: BALB/c nude, mouse, in vivo, iv, total radioactivity
Summary of the method: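 Compounds labelled with ^177Lu in 0.5 M NaOAc pH 4.5 at 95° C for 15 min, then used directly or diluted in PBS with 3 mg/mL ascorbate. BALB/c nude mice bore subcutaneous AR42J flank xenografts (0.05-0.50 g). Organs excised at 4, 24 and 72 h post-injection and γ-counted for % ID and % ID/g.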

SMILES | Relative Binding Affinity CCK2R ([1]; based on mean IC50, C-2 = 1.00) | Relative Binding Affinity SSTR2 ([2]; based on mean IC50, C-1 = 1.00) | Relative Binding Affinity CCK2R [1] | Relative Binding Affinity SSTR2 [2] | other results
C[C@@H](O)[C@H](NC(=O)[C@@H]1CSSC[C@H](NC(=O)[C@@H](Cc2ccccc2)NC(=O)COCCOCCNC(=O)C(CCCCNC(=O)CC[C@H](NC(=O)CNC(=O)c2cccc(NC(=O)N[C@@H]3CN(C4CCCCC4)c4ccccc4N(CC(=O)C(C)(C)C)C3=O)c2)C(=O)O)NC(=O)COCCOCCNC(=O)CC[C@H](NC(=O)CC[C@H](NC(=O)CN2CCN(CC(=O)O)CCN(CC(=O)O)CCN(CC(=O)O)CC2)C(=O)O)C(=O)O)C(=O)N[C@@H](Cc2ccc(O)cc2)C(=O)N[C@H](Cc2c[nH]c3ccccc23)C(=O)N[C@@H](CCCCN)C(=O)N[C@@H]([C@@H](C)O)C(=O)N1)C(=O)O (stereo in doubt) [Compound I-14, DOTA-gE-gE-OEG-K(-gE-G-Z360)-OEG-f[CYwKTC]T-OH] | 3.80 | 3.50 |  |  | tissue to tissue ratio at 24 h ([3]; T/K Tumor/Kidney ratio): 0.2; tissue to tissue ratio at 24 h ([3]; T/L Tumor/Liver ratio): 6.7; tissue to tissue ratio at 24 h ([3]; T/P Tumor/Pancreas ratio): 4.4; tissue to tissue ratio at 24 h ([3]; T/Sp Tumor/Spleen ratio): 27; tissue to tissue ratio at 24 h ([3]; T/St Tumor/Stomach ratio): 6.6; tissue uptake at 24 h ([3]; uptake Kidney): 68.6 %ID/g; tissue uptake at 24 h ([3]; uptake Liver): 2.24 %ID/g; tissue uptake at 24 h ([3]; uptake Pancreas): 3.37 %ID/g; tissue uptake at 24 h ([3]; uptake Spleen): 0.56 %ID/g; tissue uptake at 24 h ([3]; uptake Stomach): 2.25 %ID/g; tissue uptake at 24 h ([3]; uptake Tumor): 14.9 %ID/g
C[C@@H](O)[C@H](NC(=O)[C@@H]1CSSC[C@H](NC(=O)[C@@H](Cc2ccccc2)NC(=O)COCCOCCNC(=O)[C@H](CCCCNC(=O)CC[C@H](NC(=O)CNC(=O)c2cccc(NC(=O)N[C@@H]3CN(C4CCCCC4)c4ccccc4N(CC(=O)C(C)(C)C)C3=O)c2)C(=O)O)NC(=O)COCCOCCNC(=O)COCCOCCNC(=O)CC[C@H](NC(=O)CC[C@H](NC(=O)CN2CCN(CC(=O)O)CCN(CC(=O)O)CCN(CC(=O)O)CC2)C(=O)O)C(=O)O)C(=O)N[C@@H](Cc2ccc(O)cc2)C(=O)N[C@H](Cc2c[nH]c3ccccc23)C(=O)N[C@@H](CCCCN)C(=O)N[C@@H]([C@@H](C)O)C(=O)N1)C(=O)O [Compound I-15, DOTA-gE-gE-OEG-OEG-K(-gE-G-Z360)-OEG-f[CYwKTC]T-OH] | 71.1 | 0.29 |  |  | 
C[C@@H](O)[C@H](NC(=O)[C@@H]1CSSC[C@H](NC(=O)[C@@H](Cc2ccccc2)NC(=O)COCCOCCNC(=O)COCCOCCNC(=O)[C@H](CCCCNC(=O)CCC(C(=O)O)N2CCN(CC(=O)O)CCN(CC(=O)O)CCN(CC(=O)O)CC2)NC(=O)COCCOCCNC(=O)COCCOCCNC(=O)CC[C@H](NC(=O)CC[C@H](NC(=O)c2cccc(NC(=O)N[C@@H]3CN(C4CCCCC4)c4ccccc4N(CC(=O)C(C)(C)C)C3=O)c2)C(=O)O)C(=O)O)C(=O)N[C@@H](Cc2ccc(O)cc2)C(=O)N[C@H](Cc2c[nH]c3ccccc23)C(=O)N[C@@H](CCCCN)C(=O)N[C@@H]([C@@H](C)O)C(=O)N1)C(=O)O (stereo partly shown) [Compound I-17, (Z360)- gE- gE- OEG- OEG- K(DOTAGA)- OEG- OEG- f[CYwKTC]T- OH (] | 17.3 | 0.16 |  |  | 
C[C@@H](O)[C@H](NC(=O)[C@@H]1CSSC[C@H](NC(=O)[C@@H](Cc2ccccc2)NC(=O)COCCOCCNC(=O)[C@H](CCCCNC(=O)CCC(C(=O)O)N2CCN(CC(=O)O)CCN(CC(=O)O)CCN(CC(=O)O)CC2)NC(=O)COCCOCCNC(=O)c2cccc(NC(=O)N[C@@H]3CN(C4CCCCC4)c4ccccc4N(CC(=O)C(C)(C)C)C3=O)c2)C(=O)N[C@@H](Cc2ccc(O)cc2)C(=O)N[C@H](Cc2c[nH]c3ccccc23)C(=O)N[C@@H](CCCCN)C(=O)N[C@@H]([C@@H](C)O)C(=O)N1)C(=O)O (stereo partly shown) [Compound I-31, Z360- OEG- K(DOTAGA)- OEG- f[CYwKTC]T- OH] |  |  | 8.8 | 4.75 | 
C[C@@H](O)[C@H](NC(=O)[C@@H]1CSSC[C@H](NC(=O)[C@@H](Cc2ccccc2)NC(=O)COCCOCCNC(=O)[C@H](CCCCNC(=O)COCCOCCNC(=O)c2cccc(NC(=O)N[C@@H]3CN(C4CCCCC4)c4ccccc4N(CC(=O)C(C)(C)C)C3=O)c2)NC(=O)CN2CCN(CC(=O)O)CCN(CC(=O)O)CCN(CC(=O)O)CC2)C(=O)N[C@@H](Cc2ccc(O)cc2)C(=O)N[C@H](Cc2c[nH]c3ccccc23)C(=O)N[C@@H](CCCCN)C(=O)N[C@@H]([C@@H](C)O)C(=O)N1)C(=O)O [Compound I-43, DOTA-K(-OEG-Z360)-OEG-f[CYwKTC]T-OH] |  |  | 4.0 | 0.61 | 
C[C@@H](O)[C@H](NC(=O)[C@@H]1CSSC[C@H](NC(=O)[C@@H](Cc2ccccc2)NC(=O)COCCOCCNC(=O)COCCOCCNC(=O)COCCOCCNC(=O)[C@H](CCCCNC(=O)c2cccc(NC(=O)N[C@@H]3CN(C4CCCCC4)c4ccccc4N(CC(=O)C(C)(C)C)C3=O)c2)NC(=O)CN2CCN(CC(=O)O)CCN(CC(=O)O)CCN(CC(=O)O)CC2)C(=O)N[C@@H](Cc2ccc(O)cc2)C(=O)N[C@H](Cc2c[nH]c3ccccc23)C(=O)N[C@@H](CCCCN)C(=O)N[C@@H]([C@@H](C)O)C(=O)N1)C(=O)O [Compound I-45, DOTA-K(Z360)-OEG-OEG-OEG-f[CYwKTC]T-OH] | 1.7 | 1.36 |  |  | IC50 [1]: 9.9 nM; IC50 [2]: 2.07 nM
C[C@@H](O)[C@H](NC(=O)[C@@H]1CSSC[C@H](NC(=O)[C@@H](Cc2ccccc2)NC(=O)[C@H](CCCCNC(=O)COCCOCCNC(=O)COCCOCCNC(=O)COCCOCCNC(=O)c2cccc(NC(=O)N[C@@H]3CN(C4CCCCC4)c4ccccc4N(CC(=O)C(C)(C)C)C3=O)c2)NC(=O)CN2CCN(CC(=O)O)CCN(CC(=O)O)CCN(CC(=O)O)CC2)C(=O)N[C@@H](Cc2ccc(O)cc2)C(=O)N[C@H](Cc2c[nH]c3ccccc23)C(=O)N[C@@H](CCCCN)C(=O)N[C@@H]([C@@H](C)O)C(=O)N1)C(=O)O [Compound I-46, DOTA-K(-OEG-OEG-OEG-Z360)-f[CYwKTC]T-OH] |  |  | 50.2 | 0.43 | 
C[C@@H](O)[C@H](NC(=O)[C@@H]1CSSC[C@H](NC(=O)[C@@H](Cc2ccccc2)NC(=O)COCCOCCNC(=O)[C@H](CCCCNC(=O)CC[C@H](NC(=O)CNC(=O)c2cccc(NC(=O)NC3CN(C4CCCCC4)c4ccccc4N(CC(=O)C(C)(C)C)C3=O)c2)C(=O)O)NC(=O)COCCOCCNC(=O)COCCOCCNC(=O)[C@@H](N)CCCCNC(=O)[C@@H](N)CCCCNC(=O)CN2CCN(CC(=O)O)CCN(CC(=O)O)CCN(CC(=O)O)CC2)C(=O)N[C@@H](Cc2ccc(O)cc2)C(=O)N[C@H](Cc2c[nH]c3ccccc23)C(=O)N[C@@H](CCCCN)C(=O)N[C@@H]([C@@H](C)O)C(=O)N1)C(=O)O (stereo partly shown) [Compound I-65, DOTA-eK-eK-OEG-OEG-K(-gE-G-Z360)-OEG-f[CYwKTC]T-OH] | 1.8 | 20.7 |  |  | IC50 [1]: 9.4 nM; IC50 [2]: 0.136 nM
